Results: patent US20160376605A1, “WHEAT PLANTS HAVING INCREASED TOLERANCE TO IMIDAZOLINONE HERBICIDES” (BASF SE, priority 2003, published 2016)

What was measured:
Assay in all cases: Field Trials (2): tolerance scores at two rates of imazamox
Format in all cases: in vivo
[1] = system: Durum wheat M3:4 lines derived from M2 plant UT10; details: UT10, range across M3:4 lines
Description: (§1) One hundred ten M3:4 lines derived from sixteen M2 plants were screened at 71 g/ha and 160 g/ha imazamox. The number of M4 lines per M2 plant varied from one to twenty. Tolerance of M3:4 lines was compared to untreated plots of the same line as well as to treated plots of a wild-type cultivar from which some of them were derived.
(§2) All tested lines survived at both rates of herbicide treatment, whereas all plants of the wild type were killed at both rates. Based on comparison to the wild type line, all lines tested expressed considerable tolerance to the applied rates, particularly when looking at height reduction relative to untreated plots. A rate of 35 g/ha imazamox is adequate to kill susceptible durum wheat.

[2] = system: Durum wheat M3:4 lines derived from M2 plant UT17; details: UT17, range across M3:4 lines
Description: as §1, §2

[3] = system: Durum wheat M3:4 lines derived from M2 plant UT07; details: UT07, range across M3:4 lines
Description: as §1, §2

[4] = system: Durum wheat M3:4 lines derived from M2 plant UT08; details: UT08, range across M3:4 lines
Description: as §1, §2

[5] = system: Durum wheat M3:4 lines derived from M2 plant UT12; details: UT12, range across M3:4 lines
Description: as §1, §2

[6] = system: Durum wheat M3:4 lines derived from M2 plant UT16; details: UT16, range across M3:4 lines
Description: as §1, §2

[7] = system: Durum wheat M3:4 lines derived from M2 plant UT19; details: UT19, range across M3:4 lines
Description: as §1, §2

[8] = system: Durum wheat M3:4 lines derived from M2 plant UT03; details: UT03, range across M3:4 lines
Description: as §1, §2

[9] = system: Durum wheat M3:4 lines derived from M2 plant UT01; details: UT01, range across M3:4 lines
Description: as §1, §2

[10] = system: Wild Type durum wheat cultivar; details: for % Chlorosis / % Height Reduction: Wild Type
Description: as §1, §2

[11] = system: Durum wheat M3:4 lines derived from M2 plant UT05; details: UT05, range across M3:4 lines
Description: as §1, §2

[12] = system: Durum wheat M3:4 lines derived from M2 plant UT13; details: UT13, range across M3:4 lines
Description: as §1, §2

[13] = system: Durum wheat M3:4 lines derived from M2 plant UT14; details: UT14, range across M3:4 lines
Description: as §1, §2

Compound: COCc1cnc(C2=NC(C)(C(C)C)C(=O)N2)c(C(=O)O)c1 (centres unmarked) [imazamox]
- % Chlorosis ([1]; imazamox 71 g/ha, 14 DAT): 5-10%
- % Height Reduction ([1]; imazamox 71 g/ha, 14 DAT): 0-10%
- % Chlorosis ([1]; imazamox 71 g/ha, 30 DAT): 5%
- % Height Reduction ([1]; imazamox 71 g/ha, 30 DAT): 0-5%
- % Chlorosis ([1]; imazamox 160 g/ha, 14 DAT): 10%
- % Height Reduction ([1]; imazamox 160 g/ha, 14 DAT): 0-20%
- % Chlorosis ([1]; imazamox 160 g/ha, 30 DAT): 5%
- % Height Reduction ([1]; imazamox 160 g/ha, 30 DAT): 0-10%
- % Chlorosis ([2]; imazamox 71 g/ha, 14 DAT): 5-20%
- % Height Reduction ([2]; imazamox 71 g/ha, 14 DAT): 0-20%
- % Chlorosis ([2]; imazamox 71 g/ha, 30 DAT): 0%
- % Height Reduction ([2]; imazamox 71 g/ha, 30 DAT): 5-20%
- % Chlorosis ([2]; imazamox 160 g/ha, 14 DAT): 5-30%
- % Height Reduction ([2]; imazamox 160 g/ha, 14 DAT): 0-30%
- % Chlorosis ([2]; imazamox 160 g/ha, 30 DAT): 0-5%
- % Height Reduction ([2]; imazamox 160 g/ha, 30 DAT): 5-30%
- % Chlorosis ([3]; imazamox 71 g/ha, 14 DAT): 0-5%
- % Height Reduction ([3]; imazamox 71 g/ha, 14 DAT): 0-10%
- % Chlorosis ([3]; imazamox 71 g/ha, 30 DAT): 0-10%
- % Height Reduction ([3]; imazamox 71 g/ha, 30 DAT): 0-5%
- % Chlorosis ([3]; imazamox 160 g/ha, 14 DAT): 5-10%
- % Height Reduction ([3]; imazamox 160 g/ha, 14 DAT): 0-10%
- % Chlorosis ([3]; imazamox 160 g/ha, 30 DAT): 5-15%
- % Height Reduction ([3]; imazamox 160 g/ha, 30 DAT): 0-10%
- % Chlorosis ([4]; imazamox 71 g/ha, 14 DAT): 0-10%
- % Height Reduction ([4]; imazamox 71 g/ha, 14 DAT): 0-10%
- % Chlorosis ([4]; imazamox 71 g/ha, 30 DAT): 0-10%
- % Height Reduction ([4]; imazamox 71 g/ha, 30 DAT): 0-10%
- % Chlorosis ([4]; imazamox 160 g/ha, 14 DAT): 0-10%
- % Height Reduction ([4]; imazamox 160 g/ha, 14 DAT): 0-10%
- % Chlorosis ([4]; imazamox 160 g/ha, 30 DAT): 0-15%
- % Chlorosis ([5]; imazamox 71 g/ha, 14 DAT): 0-10%
- % Height Reduction ([5]; imazamox 71 g/ha, 14 DAT): 0-10%
- % Chlorosis ([5]; imazamox 71 g/ha, 30 DAT): 0-5%
- % Height Reduction ([5]; imazamox 71 g/ha, 30 DAT): 0-10%
- % Chlorosis ([5]; imazamox 160 g/ha, 14 DAT): 10-15%
- % Height Reduction ([5]; imazamox 160 g/ha, 14 DAT): 10-20%
- % Chlorosis ([5]; imazamox 160 g/ha, 30 DAT): 5-10%
- % Height Reduction ([5]; imazamox 160 g/ha, 30 DAT): 5-10%
- % Chlorosis ([6]; imazamox 71 g/ha, 14 DAT): 5-10%
- % Height Reduction ([6]; imazamox 71 g/ha, 14 DAT): 0%
- % Chlorosis ([6]; imazamox 71 g/ha, 30 DAT): 0%
- % Height Reduction ([6]; imazamox 71 g/ha, 30 DAT): 0-10%
- % Chlorosis ([6]; imazamox 160 g/ha, 14 DAT): 10-20%
- % Height Reduction ([6]; imazamox 160 g/ha, 14 DAT): 0-10%
- % Chlorosis ([6]; imazamox 160 g/ha, 30 DAT): 0-5%
- % Height Reduction ([6]; imazamox 160 g/ha, 30 DAT): 0-10%
- % Chlorosis ([7]; imazamox 71 g/ha, 14 DAT): 30-40%
- % Height Reduction ([7]; imazamox 71 g/ha, 14 DAT): 0-10%
- % Chlorosis ([7]; imazamox 71 g/ha, 30 DAT): 0%
- % Height Reduction ([7]; imazamox 71 g/ha, 30 DAT): 5-20%
- % Chlorosis ([7]; imazamox 160 g/ha, 14 DAT): 40%
- % Height Reduction ([7]; imazamox 160 g/ha, 14 DAT): 0-10%
- % Chlorosis ([7]; imazamox 160 g/ha, 30 DAT): 0-5%
- % Height Reduction ([7]; imazamox 160 g/ha, 30 DAT): 10-20%
- % Chlorosis ([8]; imazamox 71 g/ha, 14 DAT): 0%
- % Height Reduction ([8]; imazamox 71 g/ha, 14 DAT): 10%
- % Chlorosis ([8]; imazamox 71 g/ha, 30 DAT): 5%
- % Height Reduction ([8]; imazamox 71 g/ha, 30 DAT): 5%
- % Chlorosis ([8]; imazamox 160 g/ha, 14 DAT): 5%
- % Height Reduction ([8]; imazamox 160 g/ha, 14 DAT): 10%
- % Chlorosis ([8]; imazamox 160 g/ha, 30 DAT): 5%
- % Height Reduction ([8]; imazamox 160 g/ha, 30 DAT): 5%
- % Chlorosis ([9]; imazamox 71 g/ha, 14 DAT): 0-10%
- % Height Reduction ([9]; imazamox 71 g/ha, 14 DAT): 0%
- % Chlorosis ([9]; imazamox 71 g/ha, 30 DAT): 0%
- % Height Reduction ([9]; imazamox 71 g/ha, 30 DAT): 0-10%
- % Chlorosis ([9]; imazamox 160 g/ha, 14 DAT): 1-10%
- % Height Reduction ([9]; imazamox 160 g/ha, 14 DAT): 0%
- % Chlorosis ([9]; imazamox 160 g/ha, 30 DAT): 0-5%
- % Height Reduction ([9]; imazamox 160 g/ha, 30 DAT): 0-20%
- % Chlorosis ([10]; imazamox 71 g/ha, 14 DAT): 90%
- % Height Reduction ([10]; imazamox 71 g/ha, 14 DAT): 100%
- % Chlorosis ([10]; imazamox 71 g/ha, 30 DAT): 100%
- % Height Reduction ([10]; imazamox 71 g/ha, 30 DAT): 100%
- % Chlorosis ([10]; imazamox 160 g/ha, 14 DAT): 90%
- % Height Reduction ([10]; imazamox 160 g/ha, 14 DAT): 100%
- % Chlorosis ([10]; imazamox 160 g/ha, 30 DAT): 100%
- % Height Reduction ([10]; imazamox 160 g/ha, 30 DAT): 100%
- survival of wild type plants ([10]; imazamox 71 g/ha and 160 g/ha (both rates), all plants of the wild type): killed
- % Chlorosis ([11]; imazamox 71 g/ha, 14 DAT): 5-10%
- % Height Reduction ([11]; imazamox 71 g/ha, 14 DAT): 5-10%
- % Chlorosis ([11]; imazamox 71 g/ha, 30 DAT): 5-10%
- % Height Reduction ([11]; imazamox 71 g/ha, 30 DAT): 5-10%
- % Chlorosis ([11]; imazamox 160 g/ha, 14 DAT): 5-15%
- % Height Reduction ([11]; imazamox 160 g/ha, 14 DAT): 10-30%
- % Chlorosis ([11]; imazamox 160 g/ha, 30 DAT): 5-20%
- % Height Reduction ([11]; imazamox 160 g/ha, 30 DAT): 5-20%
- % Chlorosis ([12]; imazamox 71 g/ha, 14 DAT): 5%
- % Height Reduction ([12]; imazamox 71 g/ha, 14 DAT): 0-10%
- % Chlorosis ([12]; imazamox 71 g/ha, 30 DAT): 5%
- % Height Reduction ([12]; imazamox 71 g/ha, 30 DAT): 5%
- % Chlorosis ([12]; imazamox 160 g/ha, 14 DAT): 5%
- % Height Reduction ([12]; imazamox 160 g/ha, 14 DAT): 0-10%
- % Chlorosis ([12]; imazamox 160 g/ha, 30 DAT): 5-10%
- % Height Reduction ([12]; imazamox 160 g/ha, 30 DAT): 5%
- % Chlorosis ([13]; imazamox 71 g/ha, 14 DAT): 5-10%
- % Height Reduction ([13]; imazamox 71 g/ha, 14 DAT): 0%
- % Chlorosis ([13]; imazamox 71 g/ha, 30 DAT): 0%
- % Height Reduction ([13]; imazamox 71 g/ha, 30 DAT): 0-10%
- % Chlorosis ([13]; imazamox 160 g/ha, 14 DAT): 10%
- % Height Reduction ([13]; imazamox 160 g/ha, 14 DAT): 0-10%
- % Chlorosis ([13]; imazamox 160 g/ha, 30 DAT): 0%
- % Height Reduction ([13]; imazamox 160 g/ha, 30 DAT): 0-10%
